Values of other authors, collected in patent US20220312825A1 (priority 2021, published 2022).

Settings: free base (non-protonated)

For CN1CCCC1c1cccnc1 (stereo not shown) [Free-base nicotine, 3-(1-methyl-2-pyrrolidinyl) pyridine], the pKa value is listed as “about 8”.
